Experimental findings from EPA's ToxRefDB 2 are described below.

By LOAEL is commonly meant the lowest dose or exposure tested at which an adverse effect was seen. The term NOAEL denotes the highest dose or exposure tested at which no adverse effect was seen.

The subject of data set [1] is rat. The conditions noted are these: Sub-acute repeat dose toxicity; sprague dawley; Injection; Subcutaneous; dose end: 5 day; group: systemic; systemic / in life observation / clinical signs / erythema + systemic / in life observation / clinical signs / scabbing + systemic / in life….
In data set [2] the test system is rat. The settings on record: Subchronic oral toxicity in rodents, sprague dawley, Gavage/Intubation, dose end: 90 day, group: systemic.
The subject of data set [3] is rabbit. The settings on record: Sub-acute dermal toxicity, new zealand white, Topical, dose end: 3 week, group: systemic, systemic / pathology gross / lymph node / enlarged + systemic / pathology gross / skin / lesion(s) (nos) + systemic / pathology microscopic….
Data set [4] has as its system rat. The settings on record: Subchronic oral toxicity in rodents, fischer, Gavage/Intubation, dose end: 13 week, group: systemic.
For data set [5], the system named is mouse. The conditions noted are these: Subchronic oral toxicity in rodents, b6c3f1, Gavage/Intubation, dose end: 13 week, group: systemic.
Data set [6] concerns rat. The settings on record: Subchronic oral toxicity in rodents, sprague dawley, Feed, dose end: 13 week, group: systemic, systemic / clinical chemistry / cholesterol / cholesterol + systemic / clinical chemistry / globulins / globulins + systemic / clinical ….
Data set [7] concerns rat. The settings on record: Sub-acute repeat dose toxicity; sprague dawley; Oral; Feed; dose end: 28 day; group: systemic; systemic / clinical chemistry / cholesterol / cholesterol + systemic / clinical chemistry / triglycerides / triglycerides + systemic / ….
Data set [8] concerns rat. The conditions noted are these: Combined chronic toxicity/carcinogenicity, fischer, Oral, Gavage/Intubation, dose end: 2 year, group: systemic.
Data set [9] concerns rat. The settings on record: Subchronic oral toxicity in rodents, fischer, Gavage/Intubation, dose end: 13 week, group: systemic. This is another data set of the same source.
The test system of data set [10] is mouse. The conditions noted are these: Combined chronic toxicity/carcinogenicity; b6c3f1; Oral; Gavage/Intubation; dose end: 2 year; group: systemic; systemic / pathology microscopic / liver / cytomegaly + systemic / pathology microscopic / liver / hyperplasia + systemic / pathology ….
Data set [11] concerns mouse. The conditions noted are these: Subchronic oral toxicity in rodents, b6c3f1, Gavage/Intubation, dose end: 13 week, group: systemic. The source holds these as a separate data set.
Data set [12] has as its system rabbit. The settings on record: Prenatal developmental toxicity study, new zealand white, Oral, Gavage/Intubation, dose end: 19 GD.
Data set [13] relates to rat. The conditions noted are these: Prenatal developmental toxicity study, sprague dawley, Oral, Gavage/Intubation, dose end: 17 GD.
Data set [14] deals with rat. The conditions noted are these: Developmental neurotoxicity study, other, Oral, Gavage/Intubation, dose end: 140 PND, group: cannot be grouped.
In data set [15] the test system is rat. The settings on record: Carcinogenicity; fischer; Oral; Water; dose end: 104 week; group: systemic; systemic / in life observation / body weight / body weight.
In data set [16] the test system is rat. The conditions noted are these: Chronic toxicity; fischer; Oral; Feed; dose end: 115 week; group: systemic; systemic / hematology / erythrocyte (rbc) count differential / erythrocyte (rbc) + systemic / hematology / hematocrit (hct) / hematocrit (….
Data set [17] deals with rat. The conditions noted are these: Subchronic oral toxicity in rodents, fischer, Water, dose end: 14 week, group: systemic.
The test system of data set [18] is rat. The settings on record: Carcinogenicity, fischer, Oral, Water, dose end: 105 week, group: systemic.
The test system of data set [19] is rat. The settings on record: Developmental neurotoxicity study; sprague dawley; Oral; Feed; dose end: 90 PND; group: cannot be grouped; reproductive / offspring survival early / dead fetuses / dead fetuses + systemic / in life observation / body weight / offspring (pup) ….
For data set [20], the system named is mouse. The conditions noted are these: Carcinogenicity, b6c3f1, Oral, Water, dose end: 105 week, group: systemic.
Data set [21] relates to mouse. The conditions noted are these: Subchronic oral toxicity in rodents, b6c3f1, Water, dose end: 14 week.
The test system of data set [22] is rat. The settings on record: Subchronic oral toxicity in rodents, fischer, Water, dose end: 6 week, group: systemic.
Where [23] appears, read: systemic / clinical chemistry / [other] / [other] + systemic / clinical chemistry / chloride / chloride + systemic / clinical chemistry / ….
The mark [24] stands for this setting: systemic / pathology gross / thymus / discolored.
[25] abbreviates: systemic / hematology / anemia / anemia - macrocytic + systemic / hematology / erythrocyte (rbc) count differential / erythrocyte (rbc) + ….
Where [26] appears, read: systemic / hematology / methemoglobin / methemoglobin.
Where [27] appears, read: systemic / hematology / anemia / anemia - normocytic + systemic / hematology / erythrocyte (rbc) count differential / erythrocyte (rbc) + ….
The mark [28] stands for this setting: systemic / pathology microscopic / kidney / pigmentation + systemic / pathology microscopic / nose / pigmentation.
The mark [29] stands for this setting: systemic / in life observation / body weight / body weight + systemic / in life observation / clinical signs / labored respiration + ….
The mark [30] stands for this setting: systemic / in life observation / body weight / body weight + systemic / organ weight / kidney / absolute + systemic / organ weight / kidney….
The mark [31] stands for this setting: systemic / in life observation / body weight / body weight gain + systemic / in life observation / clinical signs / prostration + systemic….
[32] abbreviates: systemic / in life observation / body weight / body weight gain + systemic / organ weight / liver / absolute + systemic / organ weight / ….
Setting [33] is: group: developmental, developmental / developmental malformation / heart / atrial septum defect.
[34] abbreviates: group: maternal, systemic / in life observation / body weight / body weight gain + systemic / in life observation / food consumption / food consumption.
Setting [35] is: group: developmental, developmental / developmental malformation / bone / wavy + developmental / developmental malformation / kidney / [other] + developmental / ….
Where [36] appears, read: group: maternal, reproductive / reproductive performance / resorptions / resorptions + systemic / in life observation / body weight / body weight gain + ….
[37] abbreviates: reproductive / offspring survival early / birth index / birth index + reproductive / reproductive performance / gestational length / ….
Where [38] appears, read: systemic / in life observation / body weight / offspring (pup) weight + systemic / organ weight / thymus / relative to body weight.
The mark [39] stands for this setting: systemic / hematology / methemoglobin / methemoglobin + systemic / clinical chemistry / urea nitrogen / urea nitrogen.
The mark [40] stands for this setting: systemic / in life observation / body weight / body weight + systemic / pathology microscopic / stomach / hyperplasia.
[41] abbreviates: systemic / in life observation / water consumption / water consumption.
Where [42] appears, read: group: maternal, reproductive / reproductive performance / estrous cycle / length.
Setting [43] is: group: systemic, systemic / in life observation / body weight / body weight + systemic / in life observation / body weight / body weight gain + systemic / ….
Where [44] appears, read: systemic / hematology / methemoglobin / methemoglobin + systemic / in life observation / body weight / body weight gain + systemic / in life….

`COCc1nnc(-c2ccc[n+]([O-])c2)n1-c1c(Cl)c(Cl)cc2[nH]c(=O)c(=O)[nH]c12`: in the data set with rat [1], the LEL is 20 mg/kg/day, the LOAEL is above 20 mg/kg/day, the NEL is below 20 mg/kg/day and the no observed adverse effect level (NOAEL) is at least 20 mg/kg/day.

Regarding `Cc1ccc(O)c(C)c1` [2,4-Dimethylphenol], in the data set with rat [2] (setting [23]), the LOAEL was above 540 mg/kg/day and the NOAEL was at least 540 mg/kg/day. Besides, in the data set with rat [2] (setting [24]), the LEL worked out at 60 mg/kg/day and the NEL is below 60 mg/kg/day. Also, in the data set on rabbit [3], the LEL turned out to be 1200 mg/kg/day, the LOAEL is above 2400 mg/kg/day, the NEL is below 1200 mg/kg/day and the no-observed-adverse-effect level (NOAEL) is at least 2400 mg/kg/day.

Take `Nc1ccccc1Cl` [2-Chloroaniline]: in the data set with rat [4] (setting [25]), the lowest-observed-adverse-effect level (LOAEL) amounted to 80 mg/kg/day and the NOAEL was 40 mg/kg/day. Also, in the data set with rat [4] (setting [26]), the LEL stood at 10 mg/kg/day and the NEL was below 10 mg/kg/day. For the same compound, in the data set with mouse [5] (setting [27]), the lowest observed adverse effect level (LOAEL) amounted to 80 mg/kg/day and the NOAEL stood at 40 mg/kg/day. Besides, in the data set with mouse [5] (setting [26]), the LEL stood at 10 mg/kg/day and the NEL was below 10 mg/kg/day.

As for `O=B[O-].O=B[O-].[Ba+2]` [Barium metaborate], in the data set with rat [6], the LEL amounted to 349 mg/kg/day, the LOAEL is 349 mg/kg/day, the NEL is 70 mg/kg/day and the NOAEL was 70 mg/kg/day. Also, in the data set with rat [7], the LEL stood at 881 mg/kg/day, the LOAEL stood at 881 mg/kg/day, the NEL was 459 mg/kg/day and the NOAEL was 459 mg/kg/day.

In the case of `COc1c(Cl)c(Cl)c(Cl)c(Cl)c1Cl` [Pentachloroanisole], the lowest observed adverse effect level (LOAEL) is 40 mg/kg/day in the data set with rat [8] (systemic / in life observation / body weight / body weight + systemic / pathology microscopic / adrenal gland / hyperplasia), above 180 mg/kg/day with rat [9] (setting [29]), 20 mg/kg/day with mouse [10] and above 180 mg/kg/day in the data set with mouse [11] (setting [31]). For the same compound, the NOAEL in the data set on rat [8] (systemic / in life observation / body weight / body weight + systemic / pathology microscopic / adrenal gland / hyperplasia + systemic / …) was 20 mg/kg/day; in the data set with rat [9] (setting [29]), at least 180 mg/kg/day; in the data set with mouse [10], below 20 mg/kg/day; in the data set on mouse [11] (setting [31]), at least 180 mg/kg/day. The LEL was found to be 10 mg/kg/day with rat [8] (setting [28]), 40 mg/kg/day in the data set with rat [9] (setting [30]), 20 mg/kg/day with mouse [10] and 40 mg/kg/day with mouse [11] (setting [32]). The NEL is below 10 mg/kg/day in the data set with rat [8] (setting [28]), below 40 mg/kg/day in the data set on rat [9] (setting [30]), below 20 mg/kg/day in the data set on mouse [10] and below 40 mg/kg/day in the data set on mouse [11] (setting [32]).

For `Cl.O=C(c1ccc(OCCN2CCCCC2)cc1)c1c(-c2ccc(O)cc2)sc2cc(O)ccc12` [Raloxifene hydrochloride], the LEL in the data set on rabbit [12] (setting [33]) was determined as 0.1 mg/kg/day; in the data set with rabbit [12] (setting [34]), 10 mg/kg/day; with rat [13] (group: developmental, developmental / developmental malformation / bone / wavy + developmental / developmental malformation / kidney / [other]) it was 1 mg/kg/day; in the data set on rat [13] (setting [34]), 0.1 mg/kg/day; in the data set with rat [14] (setting [38]) it was 0.1 mg/kg/day. The LOAEL in the data set on rabbit [12] (setting [33]), in the data set on rabbit [12] (setting [34]), with rat [13] (setting [35]), with rat [13] (setting [36]) and in the data set on rat [14] (setting [37]) was above 10 mg/kg/day throughout. In addition, the NEL with rabbit [12] (setting [33]) is below 0.1 mg/kg/day; in the data set with rabbit [12] (setting [34]) it was 1 mg/kg/day; in the data set on rat [13] (setting [35]), 0.1 mg/kg/day; in the data set with rat [13] (setting [34]) it was below 0.1 mg/kg/day; in the data set with rat [14] (setting [38]) it was below 0.1 mg/kg/day. In addition, the NOAEL in the data set with rabbit [12] (setting [33]), in the data set with rabbit [12] (setting [34]), in the data set on rat [13] (setting [35]), with rat [13] (setting [36]) and in the data set with rat [14] (setting [37]) was at least 10 mg/kg/day each time.

With `O=N[O-].[Na+]` [Sodium nitrite], the LEL was determined as 125 mg/kg/day in the data set with rat [15]; 100 mg/kg/day in the data set with rat [16]; 30 mg/kg/day in the data set on rat [17] (setting [39]); 35 mg/kg/day with rat [18] (setting [41]); 12.5 mg/kg/day in the data set with rat [19]; 45 mg/kg/day in the data set with mouse [20] (setting [41]). Further, the LEL in the data set on mouse [21] (setting [42]) is 445 mg/kg/day; in the data set with mouse [21] (group: systemic, systemic / in life observation / water consumption / water consumption), 345 mg/kg/day; with rat [22] (systemic / hematology / methemoglobin / methemoglobin + systemic / in life observation / mortality / mortality + systemic / pathology gross…), 250 mg/kg/day. Moreover, the lowest observed adverse effect level (LOAEL) is above 125 mg/kg/day with rat [15]; above 250 mg/kg/day with rat [16]; 30 mg/kg/day in the data set on rat [17] (setting [26]); 130 mg/kg/day in the data set with rat [18] (setting [40]); above 25 mg/kg/day with rat [19]; 165 mg/kg/day with mouse [20] (setting [40]). Moreover, the lowest-observed-adverse-effect level (LOAEL) with mouse [21] (setting [42]) is above 1230 mg/kg/day; in the data set on mouse [21] (setting [43]), 990 mg/kg/day; in the data set with rat [22] (setting [44]), above 500 mg/kg/day. The NEL was 62.5 mg/kg/day with rat [15]; below 100 mg/kg/day with rat [16]; below 30 mg/kg/day with rat [17] (setting [39]); below 35 mg/kg/day in the data set on rat [18] (setting [41]); 6.25 mg/kg/day in the data set on rat [19]; below 45 mg/kg/day in the data set on mouse [20] (setting [41]). Besides, the NEL in the data set with mouse [21] (setting [42]) is 240 mg/kg/day; with mouse [21] (setting [43]), 190 mg/kg/day; with rat [22] (setting [44]), 125 mg/kg/day. The NOAEL in the data set on rat [15] was at least 125 mg/kg/day; with rat [16], at least 250 mg/kg/day; in the data set with rat [17] (setting [26]), below 30 mg/kg/day; in the data set on rat [18] (systemic / in life observation / body weight / body weight + systemic / pathology microscopic / stomach / hyperplasia + systemic / in life …), 70 mg/kg/day; in the data set on rat [19], at least 25 mg/kg/day; in the data set on mouse [20] (systemic / in life observation / body weight / body weight + systemic / pathology microscopic / stomach / hyperplasia + systemic / pathology…), 90 mg/kg/day. The values for the no observed adverse effect level (NOAEL) in the data set with mouse [21] (setting [42]), in the data set with mouse [21] (setting [43]) and in the data set with rat [22] (setting [44]) were at least 1230 mg/kg/day, 750 mg/kg/day and at least 500 mg/kg/day, respectively.
